Test results published in patent US9187472B2 (AbbVie Inc., priority 2012, dated 2015).
pIC50: −log10 of the molar value.

System: PC3 cells
Assay: NAMPT Cell Proliferation Assay
Type: cell-based
Conditions: Homo sapiens, PC-3, 120 h, 5 days incubation, cell viability by Cell Titer Glo
Method in brief: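 Seed PC3 at 500 cells/well (RPMI, 10% HI-FBS), attach overnight; add compound, 10-fold series 10 μM → 1×10^−5 μM; incubate 5 d, 37° C/5% CO2; luminescent viability readout; fit % inhibition sigmoidally for IC50.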

Row | SMILES | pIC50
1 | Cn1cc2c(C(=O)N3CCC(c4ccc(C(=O)NCc5ccn6ccnc6c5)cc4)CC3)cccc2n1 [Example 1116, N-(imidazo[1,2-a]pyridin-7-ylmethyl)-4-{1-[(2-methyl-2H-indazol-4-yl)carbonyl]piperidin-4-yl}benzamide] | 8.21
2 | O=C(Cc1cc(F)ccc1F)Nc1ccc(C(=O)NCc2ccn3ccnc3c2)cc1 [Example 890, 4-{[(2,5-difluorophenyl)acetyl]amino}-N-(imidazo[1,2-a]pyridin-7-ylmethyl)benzamide] | 7.50
3 | CC(C)c1nc(C(=O)N2CCC(c3ccc(C(=O)NCc4ccn5ccnc5c4)cc3)CC2)cs1 [Example 1108, N-(imidazo[1,2-a]pyridin-7-ylmethyl)-4-(1-{[2-(propan-2-yl)-1,3-thiazol-4-yl]carbonyl}piperidin-4-yl)benzamide] | 7.70
4 | O=C(NCc1ccn2ccnc2c1)Nc1ccc(C2CCN(C(=O)c3ccc4cccnc4c3)CC2)cc1 [Example 1032, 1-(imidazo[1,2-a]pyridin-7-ylmethyl)-3-{4-[1-(quinolin-7-ylcarbonyl)piperidin-4-yl]phenyl}urea] | 8.05
5 | CC(C)Cc1cc(-c2ccc(C(=O)NCc3ccn4ccnc4c3)s2)n(Cc2ccccc2)n1 [Example 907, 5-[1-benzyl-3-(2-methylpropyl)-1H-pyrazol-5-yl]-N-(imidazo[1,2-a]pyridin-7-ylmethyl)thiophene-2-carboxamide] | 8.15
6 | Cn1c(C(=O)N2CCC(c3ccc(NC(=O)NCc4ccn5ccnc5c4)cc3)CC2)cc2occc21 [Example 1045, 1-(imidazo[1,2-a]pyridin-7-ylmethyl)-3-(4-{1-[(4-methyl-4H-furo[3,2-b]pyrrol-5-yl)carbonyl]piperidin-4-yl}phenyl)urea] | 8.17
7 | COCc1ccccc1C(=O)N1CCC(c2ccc(C(=O)NCc3ccn4ccnc4c3)cc2)CC1 [Example 925, N-(imidazo[1,2-a]pyridin-7-ylmethyl)-4-{1-[2-(methoxymethyl)benzoyl]piperidin-4-yl}benzamide] | 8.69
8 | O=C(NCc1cn2ccnc2cn1)c1ccc(C2CCN(C(=O)CC(F)(F)F)CC2)cc1F [Example 1161, 2-fluoro-N-(imidazo[1,2-a]pyrazin-6-ylmethyl)-4-[1-(3,3,3-trifluoropropanoyl)piperidin-4-yl]benzamide] | 7.21
9 | COc1cccc(CC(=O)N2CCC(c3ccc(NC(=O)NCc4ccn5ccnc5c4)cc3)CC2)c1 [Example 952, 1-(imidazo[1,2-a]pyridin-7-ylmethyl)-3-(4-{1-[(3-methoxyphenyl)acetyl]piperidin-4-yl}phenyl)urea] | 7.99
10 | COc1ccc(OC)c(C(=O)N2CCC(c3ccc(NC(=O)NCc4ccn5ccnc5c4)cc3)CC2)c1 [Example 946, 1-{4-[1-(2,5-dimethoxybenzoyl)piperidin-4-yl]phenyl}-3-(imidazo[1,2-a]pyridin-7-ylmethyl)urea] | 8.23
11 | O=C(NCc1ccn2ccnc2c1)c1ccc(C2CCN(C(=O)c3ccnc(Cl)c3F)CC2)cc1 [Example 964, 4-{1-[(2-chloro-3-fluoropyridin-4-yl)carbonyl]piperidin-4-yl}-N-(imidazo[1,2-a]pyridin-7-ylmethyl)benzamide] | 8.21
12 | O=C(NCc1ccn2ccnc2c1)c1ccc(NC(=O)c2cc(F)ccc2F)cc1 [Example 870, 2,5-difluoro-N-{4-[(imidazo[1,2-a]pyridin-7-ylmethyl)carbamoyl]phenyl}benzamide] | 6.00
13 | O=C(NCc1ccn2ccnc2c1)c1ccc(-c2cnn(CC34CC5CC(CC(C5)C3)C4)c2)s1 [Example 884] | 9.01
14 | O=C(NCc1ccn2ccnc2c1)c1ccc(S(=O)(=O)c2ccccc2)cc1 [Example 881, N-(imidazo[1,2-a]pyridin-7-ylmethyl)-4-(phenylsulfonyl)benzamide] | 5.07
15 | Cn1cc2ccc(C(=O)N3CCC(c4ccc(NC(=O)NCc5ccn6ccnc6c5)cc4)CC3)cc2n1 [Example 1151, 1-(imidazo[1,2-a]pyridin-7-ylmethyl)-3-(4-{1-[(2-methyl-2H-indazol-6-yl)carbonyl]piperidin-4-yl}phenyl)urea] | 8.11
16 | O=C(NCc1ccn2ccnc2c1)c1ccc(NC(=O)c2ccccc2F)cc1 [Example 874, 2-fluoro-N-{4-[(imidazo[1,2-a]pyridin-7-ylmethyl)carbamoyl]phenyl}benzamide] | 5.18
17 | CC(C)C1CC(C(=O)N2CCC(c3ccc(C(=O)NCc4ccn5ccnc5c4)cc3)CC2)CCO1 (stereo not drawn) [Example 1008, N-(imidazo[1,2-a]pyridin-7-ylmethyl)-4-(1-{[2-(propan-2-yl)tetrahydro-2H-pyran-4-yl]carbonyl}piperidin-4-yl)benzamide] | 8.53
18 | O=C(NCc1ccn2ccnc2c1)c1ccc(C2CCN(C(=O)c3ncc(F)cc3F)CC2)cc1 [Example 975, 4-{1-[(3,5-difluoropyridin-2-yl)carbonyl]piperidin-4-yl}-N-(imidazo[1,2-a]pyridin-7-ylmethyl)benzamide] | 7.30

Row | SMILES | pIC50
19 | CC(C)C(=O)N1CCC(c2ccc(C(=O)NCc3ccc4ncnn4c3)s2)CC1 [Example 842, 5-[1-(2-methylpropanoyl)piperidin-4-yl]-N-([1,2,4]triazolo[1,5-a]pyridin-6-ylmethyl)thiophene-2-carboxamide] | 7.15
20 | O=C(NCc1ccn2ccnc2c1)c1ccc(C2CCN(C(=O)c3cnc4ccccc4n3)CC2)cc1 [Example 989, N-(imidazo[1,2-a]pyridin-7-ylmethyl)-4-[1-(quinoxalin-2-ylcarbonyl)piperidin-4-yl]benzamide] | 7.17
21 | N#CC1(C(=O)N2CCC(c3ccc(C(=O)NCc4ccn5ccnc5c4)cc3)CC2)CCCC1 [Example 982, 4-{1-[(1-cyanocyclopentyl)carbonyl]piperidin-4-yl}-N-(imidazo[1,2-a]pyridin-7-ylmethyl)benzamide] | 7.00
22 | COc1cc(C(=O)N2CCC(c3ccc(C(=O)NCc4ccn5ccnc5c4)cc3)CC2)ncc1C [Example 1100, N-(imidazo[1,2-a]pyridin-7-ylmethyl)-4-{1-[(4-methoxy-5-methylpyridin-2-yl)carbonyl]piperidin-4-yl}benzamide] | 8.06
23 | COc1ccc(C(=O)N2CCC(c3ccc(C(=O)NCc4ccn5ccnc5c4)cc3)CC2)cc1F [Example 915, 4-[1-(3-fluoro-4-methoxybenzoyl)piperidin-4-yl]-N-(imidazo[1,2-a]pyridin-7-ylmethyl)benzamide] | 6.76
24 | Cc1cc(C(=O)N2CCC(c3ccc(NC(=O)NCc4ccn5ccnc5c4)cc3)CC2)cc(Cl)n1 [Example 951, 1-(4-{1-[(2-chloro-6-methylpyridin-4-yl)carbonyl]piperidin-4-yl}phenyl)-3-(imidazo[1,2-a]pyridin-7-ylmethyl)urea] | 7.19
25 | O=C(Cc1ccn2ccnc2c1)Nc1ccc(C2CCN(C(=O)c3ccccc3)CC2)cc1F [Example 1081, N-[4-(1-benzoylpiperidin-4-yl)-2-fluorophenyl]-2-(imidazo[1,2-a]pyridin-7-yl)acetamide] | 6.71
26 | O=C(NCc1cn2ccnc2cn1)c1ccc(C2CCN(C(=O)c3cc(F)ccc3F)CC2)s1 [Example 830, 5-[1-(2,5-difluorobenzoyl)piperidin-4-yl]-N-(imidazo[1,2-a]pyrazin-6-ylmethyl)thiophene-2-carboxamide] | 9.57
27 | N#Cc1cc(C(=O)N2CCC(c3ccc(C(=O)NCc4ccn5ccnc5c4)cc3)CC2)ccc1F [Example 999, 4-[1-(3-cyano-4-fluorobenzoyl)piperidin-4-yl]-N-(imidazo[1,2-a]pyridin-7-ylmethyl)benzamide] | 6.16
28 | O=C(NCc1ccn2ccnc2c1)Nc1ccc(C2CCN(C(=O)c3cc(Cl)ncc3F)CC2)cc1 [Example 1016, 1-(4-{1-[(2-chloro-5-fluoropyridin-4-yl)carbonyl]piperidin-4-yl}phenyl)-3-(imidazo[1,2-a]pyridin-7-ylmethyl)urea] | 8.66
29 | CC(C)(CN1CCNCC1)Cn1cc(-c2ccc(C(=O)NCc3ccn4ccnc4c3)s2)cn1 [Example 1082, 5-{1-[2,2-dimethyl-3-(piperazin-1-yl)propyl]-1H-pyrazol-4-yl}-N-(imidazo[1,2-a]pyridin-7-ylmethyl)thiophene-2-carboxamide] | 8.66
30 | CC1(C(=O)N2CCC(c3ccc(C(=O)NCc4cn5ccnc5cn4)s3)CC2)CC1 [Example 839, N-(imidazo[1,2-a]pyrazin-6-ylmethyl)-5-{1-[(1-methylcyclopropyl)carbonyl]piperidin-4-yl}thiophene-2-carboxamide] | 9.22
31 | O=C(Cc1ccn2ccnc2c1)Nc1ccc(C2CCN(C(=O)c3ccccc3F)CC2)cc1 [Example 905, N-{4-[1-(2-fluorobenzoyl)piperidin-4-yl]phenyl}-2-(imidazo[1,2-a]pyridin-7-yl)acetamide] | 9.00
32 | O=C(NCc1ccn2ccnc2c1)Nc1ccc(C2CCN(C(=O)C3(c4ccccn4)CC3)CC2)cc1 [Example 1020, 1-(imidazo[1,2-a]pyridin-7-ylmethyl)-3-[4-(1-{[1-(pyridin-2-yl)cyclopropyl]carbonyl}piperidin-4-yl)phenyl]urea] | 9.05
33 | O=C(NCc1ccn2ccnc2c1)c1ccc(C2CCN(C(=O)c3ccc4cccnc4c3)CC2)cc1 [Example 984, N-(imidazo[1,2-a]pyridin-7-ylmethyl)-4-[1-(quinolin-7-ylcarbonyl)piperidin-4-yl]benzamide] | 7.26
34 | O=C(NCc1ccn2ccnc2c1)c1ccc(C2CCN(C(=O)c3cccc4ncsc34)CC2)cc1 [Example 1010, 4-[1-(1,3-benzothiazol-7-ylcarbonyl)piperidin-4-yl]-N-(imidazo[1,2-a]pyridin-7-ylmethyl)benzamide] | 8.24
35 | Cc1nc2ccc(C(=O)N3CCC(c4ccc(C(=O)NCc5ccn6ccnc6c5)cc4)CC3)cc2o1 [Example 980, N-(imidazo[1,2-a]pyridin-7-ylmethyl)-4-{1-[(2-methyl-1,3-benzoxazol-6-yl)carbonyl]piperidin-4-yl}benzamide] | 7.53
36 | CC(C)C(=O)N1CCC(c2ccc(NC(=O)NCc3ccn4ccnc4c3)c(F)c2)CC1 [Example 1078, 1-{2-fluoro-4-[1-(2-methylpropanoyl)piperidin-4-yl]phenyl}-3-(imidazo[1,2-a]pyridin-7-ylmethyl)urea] | 8.12
